Laboratory results published in ChEMBL document CHEMBL3885881, “DrugMatrix”.

Organism: Rattus norvegicus
Assay: DrugMatrix - Regimen: Daily Repeat
Format: toxicity, organism-based, Sprague-Dawley
Parameters: regimen Daily Repeat, gender Male, age 6-8 weeks
Details: in vivo, po, […], route oral GAVAGE, vehicle .5 % CMC; for ALANINE AMINOTRANSFERASE / ALKALINE PHOSPHATASE / ASPARTATE AMINOTRANSFERASE / BLOOD UREA NITROGEN / CHOLESTEROL / CREATINE PHOSPHOKINASE / CREATININE / PHOSPHORUS / POTASSIUM / SODIUM / TOTAL PROTEIN / GLUCOSE: tissue Plasma
[1] = 72 h, tissue Blood, dose 7.5 mg/Kg, dose level High, time 3 day
[2] = 72 h, dose 0.77 mg/Kg, dose level Low, time 3 day
[3] = 72 h, dose 7.5 mg/Kg, dose level High, time 3 day
[4] = 120 h, tissue Blood, dose 0.77 mg/Kg, dose level Low, time 5 day
[5] = 120 h, tissue Blood, dose 7.5 mg/Kg, dose level High, time 5 day
[6] = 120 h, dose 0.77 mg/Kg, dose level Low, time 5 day
[7] = 120 h, dose 7.5 mg/Kg, dose level High, time 5 day

## IVERMECTIN
[1]
  MEAN CORPUSCULAR HEMOGLOBIN CONCENTRATION: 36.1 G/DL
  MONOCYTE: 4%
  NEUTROPHIL: 4%
  PLATELET COUNT: 1400 x10E3/uL
[2]
  ALANINE AMINOTRANSFERASE: 35 u/L
  ALKALINE PHOSPHATASE: 418 u/L
  ASPARTATE AMINOTRANSFERASE: 56 u/L
  BLOOD UREA NITROGEN: 12.67 mg/dL
  CHOLESTEROL: 77.33 mg/dL
  CREATINE PHOSPHOKINASE: 149.33 u/L
  CREATININE: 0.5 mg/dL
  PHOSPHORUS: 13.27 mg/dL
  POTASSIUM: 6.9 MEQ/L
  SODIUM: 150.33 MEQ/L
  TOTAL PROTEIN: 5.73 G/DL
[3]
  ALANINE AMINOTRANSFERASE: 31 u/L
  ALKALINE PHOSPHATASE: 420 u/L
  ASPARTATE AMINOTRANSFERASE: 57 u/L
  CHOLESTEROL: 70 mg/dL
  CREATINE PHOSPHOKINASE: 190 u/L
  CREATININE: 0.5 mg/dL
  PHOSPHORUS: 13.3 mg/dL
  POTASSIUM: 6.93 MEQ/L
  SODIUM: 150.33 MEQ/L
[4]
  BASOPHIL: 0%
  EOSINOPHIL: 0%
  ERYTHROCYTE COUNT: 5.85 x10E6/uL
  HEMATOCRIT: 37.25%
  HEMOGLOBIN: 14 G/DL
  LEUKOCYTE COUNT: 11.3 x10E3/uL
  LYMPHOCYTE: 94%
  MEAN CORPUSCULAR HEMOGLOBIN: 23.95 pg
  MEAN CORPUSCULAR HEMOGLOBIN CONCENTRATION: 37.6 G/DL
  MONOCYTE: 0%
  NEUTROPHIL: 6%
  PLATELET COUNT: 1300.5 x10E3/uL
[5]
  BASOPHIL: 0%
  EOSINOPHIL: 0.33%
  ERYTHROCYTE COUNT: 6.11 x10E6/uL
  HEMATOCRIT: 40.07%
  HEMOGLOBIN: 15 G/DL
  LEUKOCYTE COUNT: 16.37 x10E3/uL
  LYMPHOCYTE: 90%
  MEAN CORPUSCULAR HEMOGLOBIN CONCENTRATION: 37.43 G/DL
  MEAN CORPUSCULAR VOLUME: 65.57 fL
  MONOCYTE: 1%
  PLATELET COUNT: 1335.33 x10E3/uL
[6]
  ALANINE AMINOTRANSFERASE: 36.33 u/L
  ALKALINE PHOSPHATASE: 489 u/L
  ASPARTATE AMINOTRANSFERASE: 59.67 u/L
  BLOOD UREA NITROGEN: 15.67 mg/dL
  CHOLESTEROL: 69.67 mg/dL
  CREATINE PHOSPHOKINASE: 135.67 u/L
  CREATININE: 0.53 mg/dL
  GLUCOSE: 195.33 mg/dL
  PHOSPHORUS: 13.07 mg/dL
  POTASSIUM: 6.87 MEQ/L
  TOTAL PROTEIN: 5.7 G/DL
[7]
  ALANINE AMINOTRANSFERASE: 29.33 u/L
  ALKALINE PHOSPHATASE: 361 u/L
  ASPARTATE AMINOTRANSFERASE: 51.67 u/L
  BLOOD UREA NITROGEN: 15.67 mg/dL
  CHOLESTEROL: 64.67 mg/dL
  CREATINE PHOSPHOKINASE: 155.67 u/L
  CREATININE: 0.53 mg/dL
  GLUCOSE: 166.33 mg/dL
  PHOSPHORUS: 13.37 mg/dL
  POTASSIUM: 7.1 MEQ/L
  SODIUM: 147 MEQ/L
  TOTAL PROTEIN: 5.7 G/DL
